Assay results published in patent US20160256511A1, “COMPOSITIONS AND METHODS FOR THE TREATMENT OR PROPHYLAXIS OF CIRCADIAN PROTEIN RELATED CONDITIONS” (IN INGREDIENTS, INC., priority 2013, published 2016).

Columns and labels:
Assay type in all cases: cell-based, Porcine
Details in all cases: 24 hr, all three concentrations (1 μM; 5 μM; 20 μM)
SIRT1 = SIRT1 immunofluorescence in iPEC-1 cells treated with ursolic acid
Procedure: (§1) iPEC-1 cells were grown as a monolayer in DMEM with 10% fetal bovine serum (FBS) and the necessary supplements at 37° C. in a humidified incubator with 5% CO2. iPEC1 cells were seeded on 35 mm dishes. Experiments were initiated 48 hr after plating. Cells were treated with saline or with ursolic acid at three separate dosages (1 μM; 5 μM; or 20 μM) in the medium for 24 hr at 37° C. The cells were then washed with ice-cold PBS and fixed with 4% paraformaldehyde for 10 min at room temperature followed by permeabilization with 0.3% Triton X-100 for 10 min. After being washed with PBS three times, cells were incubated for 1 hr in PBS containing 10% normal goat serum blocking solution. The cells were subjected to immunofluorescence staining with the target specific antibodies (SIRT1, CLOCK and Bmal1) overnight at 4° C. The cells were then washed with cold PBS three times for 3 min each, and incubated with Alexa-labeled secondary antibodies (Invitrogen) at room temperature for 1 h. The cells were examined by fluorescence microscopy (a Nikon TE2000-S microscope, Nikon, Tokyo, Japan).

CLOCK = CLOCK immunofluorescence in iPEC-1 cells treated with ursolic acid
Procedure: as §1

Bmal1 = Bmal1 immunofluorescence in iPEC-1 cells treated with ursolic acid
Procedure: as §1

C[C@H]1[C@H](C)CC[C@]2(C(=O)O)CC[C@]3(C)C(=CC[C@@H]4[C@@]5(C)CC[C@H](O)C(C)(C)[C@@H]5CC[C@]43C)[C@H]12 [ursolic acid]
intensity of immunofluorescence of SIRT1 compared with controls (SIRT1): significantly induced the intensity of immunofluorescence | intensity of immunofluorescence of CLOCK compared with controls (CLOCK): significantly induced the intensity of immunofluorescence | intensity of immunofluorescence of Bmal1 compared with controls (Bmal1): significantly induced the intensity of immunofluorescence
